In patent publication US20040087514A1, “Nutritional compositions” (priority 2002, published 2004):
Marks after values point to notes of the source that are not given here.

Experiments:
Assay type in all cases: in vivo, human
GLP-1 secretion = test: Clinical study, GLP-1 levels after ingestion of load (Example 1); conditions: for GLP-1 (A): mean
Description: (§1) A randomized, placebo-controlled trial was performed in 20 subjects (12 women, 8 men) [body mass index (in kg/m^2): 23]. Subjects received 5 times at least one week apart- a load consisting of galactose (50 g) alone or in combination with guar gum (2,5 g), solved in 250 ml water, or 250 ml water without any additives. Prior to each treatment a catheter was placed in an anticubital vein. Eating behavior and dietary restraint status of subjects were investigated using a validated Dutch translation of the Three Factor Eating Questionnaire (TFEQ). The study was approved by the Medical Ethics Committee of the Maastricht University.

insulin release = test: Clinical study, insulin levels after ingestion of load (Example 1); conditions: mean
Description: as §1

[1] = system: C-peptide (indicator of insulin secretion); test: Clinical study, C-peptide levels after ingestion of load (Example 1); conditions: mean
Description: as §1

[2] = system: healthy, normal-weight subjects; test: Clinical study, perception of satiety, Visual Analog Scale (Example 1); conditions: mean from 100 mm Visual Analog Scale
Description: as §1

[3] = Clinical study, plasma glucose, galactose, free fatty acids, glycerol (Example 1); conditions: data not shown
Description: as §1

In the case of `O=C[C@H](O)[C@@H](O)[C@@H](O)[C@H](O)CO` [Galactose, galactose], the “GLP-1 (A)” value (GLP-1 secretion; 0 minutes, 50 g galactose (+2,5 g guar gum) in 250 ml water) was 3.8 pmol/L, the “GLP-1 release compared to water” value (GLP-1 secretion; 30 minutes after ingestion of the load, p<0.05) was “significantly elevated” and the “GLP-1 (A)” value (GLP-1 secretion; 30 minutes after ingestion) was 4.6^# pmol/l. For the same compound, the “GLP-1 (A)” value (GLP-1 secretion; 60 minutes after ingestion) was 3.5 pmol/L, the “GLP-1 (A)” value (GLP-1 secretion; 90 minutes after ingestion) was 3.2 pmol/L and the “GLP-1 (A)” value (GLP-1 secretion; 120 minutes after ingestion) was 3.7 pmol/L. For the same compound, the “GLP-1 (A)” value (GLP-1 secretion; 240 minutes after ingestion) was 3.7 pmol/L, the “Insulin (B)” value (insulin release; 0 minutes) was 7.3 mU/l and the “Insulin (B)” value (insulin release; 30 minutes after ingestion) was 21# mU/l. The “Insulin (B)” value (insulin release; 60 minutes after ingestion) was 13 mU/l, the “Insulin (B)” value (insulin release; 90 minutes after ingestion) was 12 mU/l and the “Insulin (B)” value (insulin release; 120 minutes after ingestion) was 9.9 mU/l. For the same compound, the “Insulin (B)” value (insulin release; 240 minutes after ingestion) was 4.7 mU/l, the “C-peptide (A)” value ([1]; 0 minutes) was 0.61 nmol/L and the “C-peptide (A)” value ([1]; 30 minutes after ingestion) was 1.03^# nmol/l. The “C-peptide (A)” value ([1]; 60 minutes after ingestion) was 0.89^# nmol/l, the “C-peptide (A)” value ([1]; 120 minutes after ingestion) was 0.88 nmol/L and the “Satiety (B)” value ([2]; 0 minutes) was 27^ mm. For the same compound, the “Satiety (B)” value ([2]; 30 minutes) was 34# mm, the “Satiety (B)” value ([2]; 60 minutes) was 33# mm and the “Satiety (B)” value ([2]; 90 minutes) was 25# mm. The “Satiety (B)” value ([2]; 120 minutes) was 31# mm, the “Satiety (B)” value ([2]; 240 minutes) was 20^ mm and the galactose levels [3] was “increased galactose levels significantly”.
